{
  "source": "patent US6589946B2",
  "about": "“Bile salt conjugates” (Galmed International Limited, priority 1998, dated 2003)",
  "key": {"[1]": {"experiment": "Crystal observation time (nucleation time) assay in model bile", "details": "for effect on nucleation time versus control solution: 20% of NaTC replaced by the specific conjugate", "experimental": "Aliquots from each model bile were examined daily by polarized light microscopy. COT was defined as the initial time of detection of at least three cholesterol monohydrate crystals per microscopic field at 100 fold magnification.\nCholesterol 15 mM, EYL 30 ml, NaTC 150 mL. […] In the test solutions 20 mole percent of NaTC was replaced by an equimolar amount of each specific fatty acid/bile acid conjugate tested."}, "[2]": {"experiment": "Cholesterol crystal mass in model bile", "protocol": "(§1) EYL, cholesterol and Na-TC mixtures were dissolved in CHCl3/CH3OH (2:1 v/v), dried under N2 at room temperature, lyophilized overnight and kept at −20°C. under argon until used. Model bile solutions were prepared by suspending the dried lipids in 150 mM NaCl, 1.5 mM disodium EDTA, 50 mM Tris-HCl pH 8.0 and incubating the suspension at 55° C. for 1 hour. The solubilized model biles were incubated, in sealed vials under argon, at 37° C. for the duration of the experiment. Aliquots from the models were examined daily.\nChemical analyses of cholesterol were performed on each sample on the last day of the experiment (day 14), as previously described (G. J. Somjen see above). The samples were collected from the micro wells, centrifuged in an Airfuge (Beckman) at 70,000 rpm for 5 min. Separate determinations were performed on the total sample (before centrifugation) as well as on the supernatant solution. The amount of cholesterol in the precipitated pellets was calculated by subtracting the amounts in the supernatant solutions from the total. […] The crystal mass was also measured spectrophotometrically as the OD difference between day 0 and day 14 of the incubation.\nCholesterol 15 mM, EYL […]. […]\nAll samples were incubated at 37° C. for 100 hrs. The difference in the optical density between 100 hrs. and 0 hrs."}, "[3]": {"experiment": "Oral PalC in hamsters, TLC of gallbladder bile", "type": "in vivo", "details": "per os 10-15 mg/animal/day", "protocol": "Male, 6-7 weeks old hamsters weighing 79-83 g were maintained in an animal house with ad libidum access to water and chow.\nTest hamsters were given per os by a special syringe 10-15 mg/animal/day of PalC dissolved in 1 ml of saline. Control animals were given an equivalent volume of saline alone. […] On the second day 4 hours after the application of the PalC in saline to the respective animals they were killed by an overdose of chloroform vapors. The abdomens were opened, the bile ducts were tied up, the gallbladders were excised and rinsed twice in saline. They were then placed on the top of conical plastic tubes and incised. The bile was collected at the bottom of the tubes.\nBile samples were centrifuged (Eppendorf centrifuge) for 5 min. at 2000 rpm. Debris was discarded and the supernatant was extracted according to the Folch procedure (chloroform: methanol 2:1). After partition with water, the lipid phase was analyzed by thin layer chromatography on silica gel 60 thin layer plates (Merck). The eluent was dichloromethane:methanol:acetic acid (100:5:1, v:v:v). Samples were compared with a true standard, Reference front (Rf) about 0.2 after development with I2 vapors."}, "[4]": {"experiment": "Cholesterol crystal appearance in pooled native human gallbladder bile", "details": "10 mM test compound; 37° C.; incubation period of 21 days; control bile showed crystals from day 2", "protocol": "Native human gallbladder bile was obtained from cholesterol gallstone patients at cholecystectomy. Pooled bile from several patients was cholesterol enriched by incubation with dried cholesterol or by mixing with a concentrated model bile prior to use in experiments in order to facilitate crystallization.\nWhen the test compound (at a concentration of 10 mM) was incubated with pooled native human gallbladder bile from patients with cholesterol gallstones, the results were as follows:\nIn the native human bile, from which cholesterol crystals were removed by prior ultracentrifugation for 2 hours, new cholesterol crystals were observed from day 2 of incubation (at 37° C.). Crystal numbers increased progressively reaching a peak of more than 150 crystals per microscopic field on day 14."}, "[5]": {"experiment": "Crystal growth rate (CGR) assay in model bile", "protocol": "as §1\nCrystal growth was monitored spectrophotometrically using a microplate reader (SPECTRA-STL, Austria) (G. J. Somjen, et al., J. Lipid Res., 38, […] 1048-1052). Aliquots (50 μl) of lipid solutions were mixed and shaken vigorously with equivalent volumes of Na-taurodeoxycholate (200 mM), in microplate wells. After 60 minutes at room temperature, the microplates were shaken again and the absorbance, at 405 nm, in each well was measured. Each model was prepared in triplicate and sampled in duplicate for measurement.\nThe data were collected and analyzed by an IBM compatible personal computer, and the optical density (OD), averaged for triplicate preparations, was calculated. A graph describing the averaged OD changes for each solution was plotted. The slope in the steepest region of the curve was determined by a linear regression fit to at least three measurements and defined as the CGR. CGR and OD differences between day 0 and day 14 were calculated for each model."}, "[6]": {"details": "fed regularly to humans; cited from earlier work"}, "[7]": {"details": "20% of Na taurocholate replaced by test compound, vs control model bile"}, "[8]": {"details": "10% of NaTC replaced by PalC (B)"}, "[9]": {"details": "test compound added to whole model bile at 20% of bile salts (F)"}},
  "data": [
    {"smiles": "CCCCCCCCCCCCCCCCCCCC(=O)N[C@H]1CC[C@@]2(C)[C@@H](C1)C[C@@H](O)[C@@H]1[C@@H]2C[C@H](O)[C@]2(C)[C@@H]([C@H](C)CCC(=O)O)CC[C@@H]12", "note": "[C20 conjugate, 3β-Arachidylamido-7α,12α-dihydroxy-5β-cholan-24-oic Acid]", "values": [
      {"measurement": "nucleation time (crystal observation time) prolonged by", "setting": "[1]; [7]", "result": "more than 360%"},
      {"measurement": "effect on nucleation time versus control solution", "setting": "[1]", "result": "prolongation of the nucleation time"},
      {"measurement": "final cholesterol crystal mass, % of the control", "setting": "[2]; 20 mole percent of NaTC replaced, 14 days of incubation", "result": 38, "unit": "%"}
    ]},
    {"smiles": "CCCCCCCCCCCCCC(=O)N[C@H]1CC[C@@]2(C)[C@@H](C1)C[C@@H](O)[C@@H]1[C@@H]2C[C@H](O)[C@]2(C)[C@@H]([C@H](C)CCC(=O)O)CC[C@@H]12", "note": "[Example C14, 3β-Myristylamido-7α,12α-dihydroxy-5β-cholan-24-oic Acid]", "values": [
      {"measurement": "effect on nucleation time versus control solution", "setting": "[1]", "result": "did not prolong the nucleation time"}
    ]},
    {"smiles": "CCCCCCCCCCCCCCCC(=O)N[C@H]1CC[C@@]2(C)[C@@H](C1)C[C@@H](O)[C@@H]1[C@@H]2C[C@H](O)[C@]2(C)[C@@H]([C@H](C)CCC(=O)O)CC[C@@H]12", "note": "[PalC, 3β-Palmitylamido-7α,12α-dihydroxy-5β-cholan-24-oic Acid]", "values": [
      {"measurement": "behaviour of animals in the course of treatment", "setting": "[3]", "result": "behaved normally"},
      {"measurement": "presence in gallbladder bile by TLC (absorbed and excreted into bile)", "setting": "[3]; bile taken on second day 4 hours after application", "result": "presence of PalC in the bile"},
      {"measurement": "new cholesterol crystals during incubation", "setting": "[4]", "result": "no cholesterol crystals were seen"},
      {"measurement": "crystal growth rate reduced by", "setting": "[5]; [8]", "result": 70, "unit": "%"},
      {"measurement": "cholesterol crystal growth rate reduced by", "setting": "[5]; 20% of Na taurocholate replaced by test compound", "result": 67, "unit": "%"},
      {"measurement": "cholesterol crystal growth rate reduced by", "setting": "[5]; [9]", "result": 59, "unit": "%"},
      {"measurement": "nucleation time (crystal observation time) prolonged by", "setting": "[1]; [7]", "result": 167, "unit": "%"},
      {"measurement": "effect on nucleation time versus control solution", "setting": "[1]", "result": "prolongation of the nucleation time"},
      {"measurement": "nucleation time (crystal observation time) prolonged by", "setting": "[1]; [9]", "result": 200, "unit": "%"},
      {"measurement": "cholesterol mass on day 14 reduced by", "setting": "[2]; [8]", "result": 17, "unit": "%"},
      {"measurement": "total cholesterol crystal mass reduced by", "setting": "[2]; 20% of Na taurocholate replaced by test compound, 14 days of incubation", "result": 53, "unit": "%"},
      {"measurement": "total crystal mass reduced by", "setting": "[2]; test compound added to whole model bile at 20% of bile salts (F), 14 days of incubation", "result": 51, "unit": "%"}
    ]},
    {"smiles": "CCCCCCCCCCCCCCCCCC(=O)N[C@H]1CC[C@@]2(C)[C@@H](C1)C[C@@H](NC(=O)CCCCCCCCCCCCCCCCC)[C@@H]1[C@@H]2CC[C@]2(C)[C@@H]([C@H](C)CCC(=O)O)CC[C@@H]12", "note": "[distearoyl ursodeoxycholate, 3β,7α-Distearylamido-5β-ursodeoxycholan-24-oic Acid]", "values": [
      {"measurement": "retardation of cholesterol crystallization (nucleation time) versus control model bile and equimolar cholic acid", "setting": "[1]; 20 mole % of NaTC replaced, 37° C.", "result": "particularly effective"}
    ]},
    {"smiles": "C[C@H](CCC(=O)O)[C@H]1CC[C@H]2[C@@H]3[C@@H](O)C[C@@H]4C[C@H](O)CC[C@]4(C)[C@H]3CC[C@]12C", "note": "[ursodeoxycholic acid]", "values": [
      {"measurement": "share of biliary bile acids", "setting": "[6]", "result": "30-50%"}
    ]}
  ]
}
